Test results as given in US20160081959A1 (Glanbia plc, priority 2014, published 2016).
Like-named read-outs stand apart in the source and are kept apart here.

Experiments:
vasodilatory response = conditions: in vivo; cited from earlier work
[1] = Single dose oral pharmacokinetic study in fasted male Sprague Dawley rats (arginine in plasma, LC-MS/MS); format: in vivo
Method: Oral PK was determined in rats for ASI and several comparative compounds.
Test system: Sprague Dawley rats, male. Aged 7-9 weeks at the time of receipt.
Sample size: Study groups—4 groups per study; 5 animals/group.
The test compounds were administered through oral gavage. Oral route of administration is one of the preferred routes of administration in humans.
(§1) Study Group 1: Single dose oral pharmacokinetic study of ResArgin in male Sprague Dawley rats at a dose equivalent to 500 mg of L-Arginine/kg body weight. Male Sprague Dawley Rats aged 8-10 weeks were used for experimentation after a minimum 3 days of acclimatization. Fasted animals were administered ResArgin in a recommended vehicle (0.5% (w/v) Carboxymethylcellulose in sterile water) by oral route with a dose equivalent to 500 mg L-Arginine/kg body weight at dose volume of 10 mL/kg body weight.
Under mild isoflurane anesthesia, blood specimens were collected at time points (0.0 h, 0.16 h, 0.25 h, 0.50 h, 1.00 h, 2.00 h, 4.00 h, 6.00 h) post-dose as mentioned in Table 1 into pre-labeled tubes containing anticoagulant (K2EDTA—2 mg/mL blood) during the next 24 hours. Collected blood specimens were centrifuged at 4000 rpm, 4° C. for 10 minutes and plasma was separated and stored at −80° C. until analysis.
Study Group 2: Single dose oral pharmacokinetic study of L-Arginine in male Sprague Dawley rats at a dose of 500 mg/kg body weight. Male Sprague Dawley Rat aged 8-10 weeks were used for experimentation after a minimum 3 days of acclimatization. Fasted animals were administered L-Arginine in a recommended vehicle (0.5% (w/v) Carboxymethylcellulose in sterile water by oral route with 500 mg/kg body weight at dose volume of 10 mL/kg body weight.
as §1, with “3:” for “1:”, “L-Arginine HCl” for “ResArgin”
Male Sprague Dawley Rats aged 8-10 weeks were used for experimentation after a minimum 3 days of acclimatization.
Bioanalytical method(s) for the determination of arginine in Rat plasma were developed using LC-MS/MS. The developed methods were used for plasma sample analysis. Chromatograms were acquired using Analyst® software version 1.4.2. The concentration of the unknown sample was calculated from the following equation using regression analysis with peak area ratio of standard and ISD vs calibration standards concentration, using weighting factor (1/x^2) in accordance with Equation (1): […]
The pharmacokinetic parameters including Cmax, Tmax, AUC0-t, AUC0-inf, T1/2 and MRTlast of the arginine in rat plasma were determined from the concentration time data by using non-compartmental analysis (Phoenix WinNonlin 6.3, Pharsight Corporation, Princeton, N.J., USA).
Statistical analysis of PK parameters was performed by one way ANOVA followed by Dunnett's Post Test (L-Arginine Base vs ResArgin, L-Arginine HCl, and Arginine Silicate Inositol, respectively).

wound healing [2] = conditions: 17 g/day, after two weeks, cited from earlier work
wounds = conditions: ingested; mice; cited from earlier work
[3] = test system: muscle soreness, muscle damage, and recovery; test: Example 3: clinical study of muscle soreness, muscle damage and recovery; format: in vivo, human; conditions: ASI 750 mg 2×/day for 14 days with training regimen; expected
Method: Clinical Study to measure muscle soreness, muscle damage, and recovery. Crossover PCT.
Study group: n=16 males exercising <150 mins/week.
Secondary endpoints: NO level, blood pressure, heart rate, leg circumference, patient survey/self-assessment, e.g., visual analog scale (VAS) for pain, intramuscular biopsy.

Nitric oxide (NO) levels = test: Nitric oxide levels by salivary test strips in the human clinical study; format: in vivo
Method: NO was measured using salivary test strips, using a color scale for “Depleted”, “Low”, and “Normal” levels. […] Six subjects who were “Depleted” at Visit 2 increased to “Low” at Visit 3, while no subjects went from “Low” at Visit 2 to “Depleted” at Visit 3. In addition, the Visit 3 treatment after 1 hr gave 3 subjects “Depleted”, 4 subjects “Low”, and 3 subjects “Normal.” This “asymmetric” change pattern was statistically significant (p=0.031).

wound healing [4] = test: Example 2: topical ASI hydrogel, Vits, et al. ablative laser wound protocol; format: in vivo, human; conditions: expected
Method: Wound 1 (2013) December 30.
The Vits, et al. protocol is used as follows. In 22 healthy men (experimental group, n=11; control group, n=11) wounds are induced by ablative laser on both thighs. Hydrogel (placebo) is applied on one of the two wounds, and Hydrogel (containing ASI) is applied on the wound of the other thigh. Progress in wound healing was documented via planimetry on days 1, 4 and 7 after wound induction. From day 9 onwards wound inspections were performed daily accompanied by a change of the dressing and a new application of the gel.

[5] = Human clinical PK/PD/safety study of Nitrosigine (plasma arginine, serum silicon); format: in vivo
Text: See, Kalman D, Feldman S, Samson A, Krieger D., “A clinical evaluation to determine the safety, pharmacokinetics and pharmacodynamics of an inositol-stabilized arginine silicate dietary supplement in healthy adult males,” The FASEB Journal (April 2014) 28(1 Suppl.): LB418.
Purpose: The purpose of this study was to characterize the PK/PD of Nitrosigine®, an inositol-stabilized arginine silicate dietary supplement.
Type: Prospective, pharmacokinetic (PK)/pharmacodynamic (PD)/safety clinical trial.
Dosing: Nitrosigine® was administered as daily doses of 1,500 mg (3×500 mg tablets).
Visit 2: single dose evaluation (0-6 hrs), 1500 mg—this was also utilized as the first dose of the 14 day study. It is noted in addition that Visit 2 is also the beginning of the 14 day study, during which subjects take product once a day for 14 days.
Visit 3: 14 days later, single dose (0-6 hrs)
PK Measurements: Plasma arginine and serum silicon levels were measured after the first dose on Day 1 and again after a dose taken on Day 14, after 14 days of dosing.

wound healing [6] = test: Example 1: oral ASI, Kirk, et al. wound healing protocol in human volunteers; format: in vivo; conditions: ASI 1500 mg daily, 2 weeks; expected
Method: The Kirk, et al. protocol is used as follows. […] Fifteen volunteers receive a placebo tablet. Fibroplastic wound responses are assessed by inserting a polytetrafluoroethylene catheter subcutaneously into the right deltoid region. Epithelialization is examined by creating a 2×2 cm split thickness wound on the lateral aspect of the upper thigh. Mitogenic response of peripheral blood lymphocytes to concanavalin A, phytohemagglutinin, pokeweed mitogen, and allogeneic stimuli is assayed at the beginning and end of supplementation. Polytetrafluoroethylene catheters were analyzed for alpha-amino nitrogen (assessment of total protein accumulation), hydroxyproline (index of reparative collagen synthesis), and DNA accumulation (index of cellular infiltration).

[7] = test system: blood proteins related to vasodilation and heart health; test: Blood proteins after ASI treatment; conditions: in vivo
[8] = arginine in plasma, fasted male Sprague Dawley rats, single oral dose equivalent to 500 mg L-Arginine/kg b.w.
[9] = rat, 500 mg/kg, arginine in plasma, fasted male Sprague Dawley rats, single oral dose equivalent to 500 mg L-Arginine/kg b.w.
[10] = rat, 500 mg/kg, arginine in plasma, fasted male Sprague Dawley rats, single oral dose equivalent to 500 mg L-Arginine/kg b.w., read-out: Cmax
[11] = rat, 500 mg/kg, arginine in plasma, fasted male Sprague Dawley rats, single oral dose equivalent to 500 mg L-Arginine/kg b.w., read-out: Tmax
[12] = plasma arginine, rat, oral, 500 mg/kg L-Arginine equivalent

N=C(N)NCCC[C@H](N)C(=O)O [L-Arginine Base, L-Arginine]
amount that induces a significant vasodilatory response (vasodilatory response): ca. 5 grams | AUC% extrap [1, 8]: 8.195 ± 5.9280% | AUC(0-inf) [1, 9]: 486 ± 114 µg·h/mL | AUC(0-t) [1, 9]: 445 ± 106 µg·h/mL | MRT last [1, 9]: 1.66 ± 0.34 h | half-life [1, 9]: 1.41 ± 0.51 h | Cmax [1, 10]: 202 ± 54.3 µg/mL | Tmax [1, 11]: 0.65 ± 0.335 h

Cl.N=C(N)NCCC[C@H](N)C(=O)O [L-Arginine HCl, L-Arginine hydrochloride]
amount that induces a significant vasodilatory response (vasodilatory response): ca. 5 grams | AUC% extrap [1, 8]: 27.645 ± 23.5890% | AUC(0-inf) [1, 9]: 442 ± 122 µg·h/mL | AUC(0-t) [1, 9]: 306 ± 92.7 µg·h/mL | MRT last [1, 9]: 2.48 ± 0.368 h | half-life [1, 9]: 3.08 ± 2.08 h | Cmax [1, 10]: 94.7 ± 26.2 µg/mL | Tmax [1, 11]: 1.1 ± 0.548 h

N=C(N)NCCC[C@H](N)C(=O)O [arginine, L-arginine]
hydroxyproline and protein accumulation at the wound site vs non-supplemented controls (wound healing [2]; 30 elderly patients): significantly greater | IGF-1 (wound healing [2]): elevated | lymphocyte response (wound healing [2]): elevated

O=[Si]=O [silica]
closing and healing of wounds (wounds): effective at helping to close and heal wounds

arginine silicate inositol [ASI]
cytokine markers of inflammation [3]: decrease or improvement | listed measurement parameters (e.g. NO levels) [3]: improve | change in NO levels after 14 days of administration (Nitric oxide (NO) levels; 1,500 mg/day for two weeks, Visit 2 vs Visit 3): significant increase | subjects with NO level Depleted (Nitric oxide (NO) levels; Visit 3 treatment after 1 hr): 3 subjects | subjects with NO level Low (Nitric oxide (NO) levels; Visit 3 treatment after 1 hr): 4 subjects | subjects with NO level Normal (Nitric oxide (NO) levels; Visit 3 treatment after 1 hr): 3 subjects | subjects who were Depleted at Visit 2 and increased to Low at Visit 3 (Nitric oxide (NO) levels; salivary NO strips, 10 subjects, 14 days daily dosing): Six | wound healing of wounds treated with ASI-containing gel vs placebo hydrogel (wound healing [4]): more rapid improvement in wound healing | adverse events related to the study medication ([5]; 1,500 mg daily for 14 days, 10 subjects): No adverse events related to the study medication | increase of plasma arginine concentration relative to baseline ([5]; in 30 minutes, single dose 1,500 mg, human): greater than 30% | Arginine absorption: Tmax Day 1 ([5]; plasma arginine, 10 healthy males, 1,500 mg oral, Day 1): 1.05 ± 0.50 h | Silicon absorption: Tmax Day 1 ([5]; serum silicon, 10 healthy males, 1,500 mg oral, Day 1): 2.15 ± 1.75 h | duration of significantly raised blood arginine and silicon levels ([5]; single dose, human): up to 3 hours | rate of epithelialization of the skin defect vs placebo (wound healing [6]): significantly enhanced | rate of wound healing vs placebo (wound healing [6]): increased | serum insulin-like growth factor-1 (IGF-1) levels (wound healing [6]): significantly elevated | wound catheter hydroxyproline accumulation and total protein content vs placebo (wound healing [6]): increase | amount with which similar vasodilatory responses have been shown (vasodilatory response): 750 mg | effect on blood proteins related to vasodilation and heart health [7]: significantly enhances | AUC% extrap [1, 8]: 16.987 ± 10.5790% | AUCinf [1, 8]: 1499.898 ± 233.6230 µg·h/mL | AUClast [1, 8]: 1248.990 ± 276.1000 µg·h/mL | Cmax [1, 8]: 474.300 ± 169.1040 µg/mL | MRTlast [1, 8]: 2.220 ± 0.2450 h | T1/2 [1, 8]: 2.159 ± 0.8280 h | Tmax [1, 8]: 1.100 ± 0.5480 h | AUCinf increase compared with Arginine base [1, 12]: 3 fold | AUCinf increase over Arginine base in plasma [1, 12]: 209% | Cmax increase compared with Arginine base [1, 12]: 2.35 fold | Cmax increase over Arginine base in plasma [1, 12]: 135%
